Row | SMILES | melting point [°C]
1 | Cc1ccc2c(c1)C(=O)N(C(C)c1nc3ccccc3n1Cc1cn(-c3ccccc3)nn1)C2=O (stereo not shown) [6l’, 5-Methyl-2-(1-(1-((1-phenyl-1H-1,2,3-triazol-4-yl)methyl)-1H-benzo[d]imidazol-2-yl)ethyl)isoindoline-1,3-dione] | 185 to 187
2 | COc1ccc(-n2cc(Cn3c(C(CC(C)C)N4C(=O)c5ccc(C)cc5C4=O)nc4ccccc43)nn2)cc1 (stereo not shown) [6h, 2-(1-(1-((1-(4-Methoxyphenyl)-1H-1,2,3-triazol-4-yl)methyl)-1H-benzo[d]imidazol-2-yl)-3-methylbutyl)-5-methylisoindoline-1,3-dione] | 101 to 103
3 | Cc1ccc2c(c1)C(=O)N(C(C)c1nc3ccccc3n1Cc1cn(-c3ccccc3F)nn1)C2=O (stereo not shown) [6o’, 2-(1-(1-((1-(2-Fluorophenyl)-1H-1,2,3-triazol-4-yl)methyl)-1H-benzo[d]imidazol-2-yl)ethyl)-5-methylisoindoline-1,3-dione] | 185 to 187
4 | Cc1ccc2c(c1)C(=O)N(C(CC(C)C)c1nc3ccccc3n1Cc1cn(-c3c(F)c(F)c(F)c(F)c3F)nn1)C2=O (stereo not shown) [6d, 5-Methyl-2-(3-methyl-1-(1-((1-(perfluorophenyl)-1H-1,2,3-triazol-4-yl)methyl)-1H-benzo[d]imidazol-2-yl)butyl)isoindoline-1,3-dione] | 128 to 130
5 | Cc1ccc2c(c1)C(=O)N(C(CC(C)C)c1nc3ccccc3n1Cc1cn(-c3c(F)cccc3F)nn1)C2=O (stereo not shown) [6k, 2-(1-(1-((1-(2,6-Difluorophenyl)-1H-1,2,3-triazol-4-yl)methyl)-1H-benzo[d]imidazol-2-yl)-3-methylbutyl)-5-methylisoindoline-1,3-dione] | 71 to 73
6 | CC(C)C(c1nc2ccccc2n1Cc1cn(-c2c(F)c(F)c(F)c(F)c2F)nn1)N1C(=O)c2ccccc2C1=O (stereo not shown) [6r’, 2-(2-Methyl-1-(1-((1-(perfluorophenyl)-1H-1,2,3-triazol-4-yl)methyl)-1H-benzo[d]imidazol-2-yl)propyl)isoindoline-1,3-dione] | 170 to 172
7 | CC(c1nc2ccccc2n1Cc1c[nH]nn1)N1C(=O)c2ccccc2C1=O (stereo not shown) [6g’, 2-(1-(1-((1H-1,2,3-Triazol-4-yl)methyl)-1H-benzo[d]imidazol-2-yl)ethyl)isoindoline-1,3-dione] | 97 to 99
8 | CC(c1nc2ccccc2n1Cc1cn(-c2c(F)c(F)c(F)c(F)c2F)nn1)N1C(=O)c2ccccc2C1=O (stereo not shown) [6b’, 2-(1-(1-((1-(Perfluorophenyl)-1H-1,2,3-triazol-4-yl)methyl)-1H-benzo[d]imidazol-2-yl)ethyl)isoindoline-1,3-dione] | 215 to 217
9 | CC(C)CC(c1nc2ccccc2n1Cc1cn(-c2ccc(C(F)(F)F)cc2)nn1)N1C(=O)c2ccccc2C1=O (stereo not shown) [6m, 2-(3-Methyl-1-(1-((1-(4-(trifluoromethyl)phenyl)-1H-1,2,3-triazol-4-yl)methyl)-1H-benzo[d]imidazol-2-yl)butyl)isoindoline-1,3-dione] | 216 to 218
10 | Cc1ccc(-n2cc(Cn3c(C(C)N4C(=O)c5ccc(C)cc5C4=O)nc4ccccc43)nn2)cc1 (stereo not shown) [6i’, 5-Methyl-2-(1-(1-((1-(p-tolyl)-1H-1,2,3-triazol-4-yl)methyl)-1H-benzo[d]imidazol-2-yl)ethyl)isoindoline-1,3-dione] | 216 to 218
11 | Cc1ccc2c(c1)C(=O)N(C(C)c1nc3ccccc3n1Cc1cn(-c3ccncc3)nn1)C2=O (stereo not shown) [6n’, 5-Methyl-2-(1-(1-((1-(pyridin-4-yl)-1H-1,2,3-triazol-4-yl)methyl)-1H-benzo[d]imidazol-2-yl)ethyl)isoindoline-1,3-dione] | 236 to 238
12 | CCC(C)C(c1nc2ccccc2n1Cc1cn(-c2ccncc2)nn1)N1C(=O)c2ccccc2C1=O (stereo not shown) [6u, 2-(2-Methyl-1-(1-((1-(pyridin-4-yl)-1H-1,2,3-triazol-4-yl)methyl)-1H-benzo[d]imidazol-2-yl)butyl)isoindoline-1,3-dione] | 101 to 103
13 | CC(c1nc2ccccc2n1Cc1cn(Cc2ccccc2)nn1)N1C(=O)c2ccccc2C1=O (stereo not shown) [6e’, 2-(1-(1-((1-Benzyl-1H-1,2,3-triazol-4-yl)methyl)-1H-benzo[d]imidazol-2-yl)ethyl)isoindoline-1,3-dione] | 181 to 183
14 | CC(C)C(c1nc2ccccc2n1Cc1cn(-c2c(F)cccc2F)nn1)N1C(=O)c2ccccc2C1=O (stereo not shown) [6u’, 2-(1-(1-((1-(2,6-Difluorophenyl)-1H-1,2,3-triazol-4-yl)methyl)-1H-benzo[d]imidazol-2-yl)-2-methylpropyl)isoindoline-1,3-dione] | 91 to 93
15 | Cc1ccc2c(c1)C(=O)N(C(CC(C)C)c1nc3ccccc3n1Cc1cn(-c3ccccc3)nn1)C2=O (stereo not shown) [6g, 5-Methyl-2-(3-methyl-1-(1-((1-phenyl-1H-1,2,3-triazol-4-yl)methyl)-1H-benzo[d]imidazol-2-yl)butyl)isoindoline-1,3-dione] | 67 to 69
16 | CC(C)CC(c1nc2ccccc2n1Cc1cn(-c2ccccc2F)nn1)N1C(=O)c2ccccc2C1=O (stereo not shown) [6n, 2-(1-(1-((1-(2-Fluorophenyl)-1H-1,2,3-triazol-4-yl)methyl)-1H-benzo[d]imidazol-2-yl)-3-methylbutyl)isoindoline-1,3-dione] | 107 to 109

Row | SMILES | melting point [°C]
17 | CC(c1nc2ccccc2n1Cc1cn(-c2ccccc2F)nn1)N1C(=O)c2ccccc2C1=O (stereo not shown) [6c’, 2-(1-(1-((1-(2-Fluorophenyl)-1H-1,2,3-triazol-4-yl)methyl)-1H-benzo[d]imidazol-2-yl)ethyl)isoindoline-1,3-dione] | 186 to 188
18 | CC(C)CC(c1nc2ccccc2n1Cc1cn(-c2c(F)c(F)c(F)c(F)c2F)nn1)N1C(=O)c2ccccc2C1=O (stereo not shown) [6l, 2-(3-Methyl-1-(1-((1-(perfluorophenyl)-1H-1,2,3-triazol-4-yl)methyl)-1H-benzo[d]imidazol-2-yl)butyl)isoindoline-1,3-dione] | 100 to 102
19 | CC(c1nc2ccccc2n1Cc1cn(-c2ccccc2)nn1)N1C(=O)c2ccccc2C1=O (stereo not shown) [6a’, 2-(1-(1-((1-Phenyl-1H-1,2,3-triazol-4-yl)methyl)-1H-benzo[d]imidazol-2-yl)ethyl)isoindoline-1,3-dione] | 187 to 189
20 | CCC(C)C(c1nc2ccccc2n1Cc1cn(-c2ccc(F)cc2F)nn1)N1C(=O)c2ccc(C)cc2C1=O (stereo not shown) [6r, 2-(1-(1-((1-(2,4-Difluorophenyl)-1H-1,2,3-triazol-4-yl)methyl)-1H-benzo[d]imidazol-2-yl)-2-methylbutyl)-5-methylisoindoline-1,3-dione] | 89 to 91
21 | Cc1ccc2c(c1)C(=O)N(C(CC(C)C)c1nc3ccccc3n1Cc1cn(Cc3ccccc3)nn1)C2=O (stereo not shown) [6f, 2-(1-(1-((1-Benzyl-1H-1,2,3-triazol-4-yl)methyl)-1H-benzo[d]imidazol-2-yl)-3-methylbutyl)-5-methylisoindoline-1,3-dione] | 142 to 144
22 | CC(C)CC(c1nc2ccccc2n1Cc1cn(-c2ccc(F)cc2F)nn1)N1C(=O)c2ccccc2C1=O (stereo not shown) [6o, 2-(1-(1-((1-(2,4-Difluorophenyl)-1H-1,2,3-triazol-4-yl)methyl)-1H-benzo[d]imidazol-2-yl)-3-methylbutyl)isoindoline-1,3-dione] | 126 to 128
23 | CCC(C)C(c1nc2ccccc2n1Cc1cn(-c2c(F)c(F)c(F)c(F)c2F)nn1)N1C(=O)c2ccc(C)cc2C1=O (stereo not shown) [6s, 5-Methyl-2-(2-methyl-1-(1-((1-(perfluorophenyl)-1H-1,2,3-triazol-4-yl)methyl)-1H-benzo[d]imidazol-2-yl)butyl)isoindoline-1,3-dione] | 196 to 198
24 | Cc1ccc2c(c1)C(=O)N(C(C)c1nc3ccccc3n1Cc1cn(Cc3ccccc3)nn1)C2=O (stereo not shown) [6m’, 2-(1-(1-((1-Benzyl-1H-1,2,3-triazol-4-yl)methyl)-1H-benzo[d]imidazol-2-yl)ethyl)-5-methylisoindoline-1,3-dione] | 142 to 144
25 | Cc1ccc2c(c1)C(=O)N(C(C)c1nc3ccccc3n1Cc1c[nH]nn1)C2=O (stereo not shown) [6k’, 2-(1-(1-((1H-1,2,3-Triazol-4-yl)methyl)-1H-benzo[d]imidazol-2-yl)ethyl)-5-methylisoindoline-1,3-dione] | 100 to 102
26 | Cc1ccc(-n2cc(Cn3c(C(CC(C)C)N4C(=O)c5ccc(C)cc5C4=O)nc4ccccc43)nn2)cc1 (stereo not shown) [6b, 5-Methyl-2-(3-methyl-1-(1-((1-(p-tolyl)-1H-1,2,3-triazol-4-yl)methyl)-1H-benzo[d]imidazol-2-yl)butyl)isoindoline-1,3-dione] | 160 to 162
27 | CCC(C)C(c1nc2ccccc2n1Cc1cn(-c2ccccc2F)nn1)N1C(=O)c2ccc(C)cc2C1=O (stereo not shown) [6q, 2-(1-(1-((1-(2-Fluorophenyl)-1H-1,2,3-triazol-4-yl)methyl)-1H-benzo[d]imidazol-2-yl)-2-methylbutyl)-5-methylisoindoline-1,3-dione] | 114 to 116
28 | Cc1ccc2c(c1)C(=O)N(C(CC(C)C)c1nc3ccccc3n1Cc1cn(-c3ccccc3F)nn1)C2=O (stereo not shown) [6i, 2-(1-(1-((1-(2-Fluorophenyl)-1H-1,2,3-triazol-4-yl)methyl)-1H-benzo[d]imidazol-2-yl)-3-methylbutyl)-5-methylisoindoline-1,3-dione] | 138 to 140
29 | CC(C)C(c1nc2ccccc2n1Cc1cn(-c2ccccc2F)nn1)N1C(=O)c2ccccc2C1=O (stereo not shown) [6s’, 2-(1-(1-((1-(2-Fluorophenyl)-1H-1,2,3-triazol-4-yl)methyl)-1H-benzo[d]imidazol-2-yl)-2-methylpropyl)isoindoline-1,3-dione] | 115 to 117
30 | CC(C)CC(c1nc2ccccc2n1Cc1cn(-c2c(F)cccc2F)nn1)N1C(=O)c2ccccc2C1=O (stereo not shown) [6p, 2-(1-(1-((1-(2,6-Difluorophenyl)-1H-1,2,3-triazol-4-yl)methyl)-1H-benzo[d]imidazol-2-yl)-3-methylbutyl)isoindoline-1,3-dione] | 198 to 200
31 | Cc1ccc2c(c1)C(=O)N(C(C)c1nc3ccccc3n1Cc1cn(-c3ccc(F)cc3)nn1)C2=O (stereo not shown) [6h’, 2-(1-(1-((1-(4-Fluorophenyl)-1H-1,2,3-triazol-4-yl)methyl)-1H-benzo[d]imidazol-2-yl)ethyl)-5-methylisoindoline-1,3-dione] | 222 to 224
